One data set has as its system intracellular proteins. Description: Identification of intracellular proteins that bind HQ5 (lysate incubated with dye). In kind it is binding. Conditions: lysate incubated with HQ5 and CW800. How it is done: FIG. 12 relates to identification of intracellular proteins that bind HQ5. In order to try to identify the protein to which the HQ-dyes bind Lysate is (after pre-treatment) incubated with HQ5 and CW800. Exact protocol and technique not specified. […] A specific HQ5-binding protein has a molecular weight of approx. 40 kD.

In the next data set the test system is 4T1-Luc cells. Nature of the data set: Dry ice assay: binding to dead cells or uptake by living cells. It is filed as cell-based, mouse. Conditions: dry-ice killed 4T1-Luc cells in the center of the wells, 15 min at 37° C. How it is done:
4T1-Luc cells were seeded onto individual wells from a 12-well cell culture plate and allowed to grow to confluence in RPMI media supplemented with 10% fetal bovine serum. 4T1-luc2 mouse breast cancer cells were used as the adherence of these cells to the bottom of the culture well remains strong after dry-ice treatment. To initiate cryo-induced cell death, media was discarded and dry-ice was applied to the bottom center of each individual well for 15 sec. Subsequently, fresh medium with different concentrations of the first compound of the invention were added and cells were incubated at 37° C. for 15 min. After incubation, the media were discarded and the cells were washed twice with serum free medium and 0.5 ml fresh RPMI was added to each well. Cells were then visualized using a Licor Odyssey equipped with 700 and 800 nm diode laser. Luciferin ([…]) was also added to each well and fluorescence and bioluminescence images were acquired using an IVIS Spectrum (fluorescence: excitation filter: 710 nm, emission filter: 820 nm, exposure time: 90 s, bin: 8, f/stop: 2, field of view: 12.9 cm) (bioluminescence: open filter, exposure time: 30 s, bin: 8, f/stop: 1, field of view: 12.9 cm). Some culture wells were also stained for 15 min with Trypan Blue (0.2% in culture medium) to confirm cell death.

The test system of a further data set is injured tissues. The settings on record: Prajapati et al., Mol Imaging 2009; cited from earlier work.
A further data set has as its system 4T1 cells. Nature of the data set: Confocal microscopy of Gambogic acid treated 4T1 cells. It is filed as cell-based, mouse. From the text: Gambogic acid kills cells leading to membrane disruption. […] Annexin-V-FITC specifically binds to phosphatidyl serine (PS) expressed on the outside of the cell membrane of apoptotic and necrotic cells.
Annexin V, however, can next to late apoptotic and necrotic cells also stain cells in an early stage of apoptosis.

As to `CC1(C)C(/C=C/C2=C(Oc3ccc(S(=O)(=O)O)cc3)C(=C/C=C3/N(CCCCS(=O)(=O)O)c4ccc(S(=O)(=O)[O-])cc4C3(C)C)/CCC2)=[N+](CCCCCC(=O)O)c2ccc(S(=O)(=O)O)cc21` [CW800], the “proteins bound, HQ5 compared with CW800” value in the data set with intracellular proteins was “share some but also have different proteins they bind with”. Further, in the data set with 4T1-Luc cells, the “binding to dead cells” value was “specifically and dose-dependently bind to dead cells”.

With `CC1(C)C(=CC=C2CCCC(C=CC3=[N+](CCCCS(=O)(=O)[O-])c4ccc5ccccc5c4C3(C)C)=C2Cl)N(CCCCS(=O)(=O)[O-])c2ccc3ccccc3c21.[Na+]` [IR-820], the blood pool behaviour result in the data set with injured tissues was “is a blood pool agent that just simply leaks out of blood vessels after disruption of the vessels”.

B1: Annexin V: binds phosphatidyl serine on the outside of the membrane of apoptotic and necrotic cells (protein, UniProt P08758 2-320, looked up)
Annexin A5: AQVLRGTVTDFPGFDERADAETLRKAMKGLGTDEESILTLLTSRSNAQRQEISAAFKTLFGRDLLDDLKSELTGKFEKLIVALMKPSRLYDAYELKHALKGAGTNEKVLTEIIASRTPEELRAIKQVYEEEYGSSLEDDVVGDTSGYYQRMLVVLLQANRDPDAGIDEAQVEQDAQALFQAGELKWGTDEEKFITIFGTRSVSHLRKVFDKYMTISGFQIEETIDRETSGNLEQLLLAVVKSIRSIPAYLAETLYYAMKGAGTDDHTLIRVMVSRSEIDLFNIRKEFRKNFATSLYSMIKGDTSGDYKKALLLLCGEDD
modifications: FITC label
For B1, the “number of cells stained” value in the data set on 4T1 cells was “stains a larger number of cells than both HQ5 and EtD”.
